{
  "source": "patent US7279321B2",
  "about": "“Methods for increasing the resistance of a host cell to aromatic carboxylic acids” (priority 2003, dated 2007)",
  "key": {"[1]": {"tested_on": "yhcRQP-luxCDABE gene fusion in strain DPD2436 (yhcS+)", "test": "Bioluminescence response of yhcRQP-luxCDABE gene fusion", "format": "cell-based, E. coli", "conditions": "LB pH 7.0, sodium salt", "source_text": "(§1) Plasmid pDEW655 was constructed by ligating an E. coli chromosomal segment between nucleotides 3385829 and 3386761 according to the E. coli genomic sequence, which contains the promoter region of the putative yhcRQP operon and the entire yhcR gene and the 5′ end of the yhcQ gene, to the luxCDABE genes parental plasmid, pDEW201 (Gonye et al. U.S. Patent Application Publication 20030219736). Thus, this gene fusion will report on expression of the yhcQ gene and accordingly any other genes cotranscribed with it. Plasmid pDEW655 was moved to E. coli strains MG1655 and DPD2433 by transformation, selecting for Ampicillin resistance to generate strains DPD2436 and DPD2437, respectively. The bioluminescent response of these two strains to pHBA was tested."}, "[2]": {"tested_on": "yhcRQP-luxCDABE gene fusion in strain DPD2437 (yhcS−)", "test": "Bioluminescence response of yhcRQP-luxCDABE gene fusion", "format": "cell-based, E. coli", "conditions": "LB pH 7.0, sodium salt", "source_text": "as §1"}, "E. coli strain MG1655": {"tested_on": "E. coli strain MG1655", "test": "pHBA zone of growth inhibition on solidified Vogel-Bonner medium", "format": "cell-based", "conditions": "sodium salt of pHBA 80 μmoles/disk, Vogel-Bonner with glucose", "procedure": "This was tested by measuring the size of the zone of growth inhibition and scoring the degree of growth within the zones resulting from the sodium salt of pHBA (80 μmoles/disk) on solidified Vogel-Bonner medium with glucose as the carbon source (Table 5)."}, "[3]": {"tested_on": "E. coli strain DH5αE (parental)", "test": "zone of growth inhibition test on LB agar plates", "format": "cell-based", "conditions": "disk with 90 μmol pHBA sodium salt, 24 hr at 37° C.", "description": "(§2) A zone of growth inhibition test was done using 0.1 ml of overnight cultures in LB medium plated onto LB agar plates using 2.5 ml LB soft agar."}, "[4]": {"tested_on": "E. coli strain DPD2443 (yhcP::TN<Kan> of DH5αE)", "test": "zone of growth inhibition test on LB agar plates", "format": "cell-based", "conditions": "disk with 90 μmol pHBA sodium salt, 24 hr at 37° C.", "description": "as §2"}, "[5]": {"tested_on": "E. coli strain DPD2463 (DPD2444 yhcP− with pDEW659 yhcP)", "test": "pHBA zone of growth inhibition, plasmid-carrying strains (Table 9)", "format": "cell-based", "source_text": "(§3) Plasmids pDEW668, pDEW673, pDEW675, and a control plasmid, pTrcHis2TOPO®/lacZ (Invitrogen), were moved by transformation to E. coli strain DPD2433, selecting for Ampicillin resistance, to generate strains DPD3317, DPD2455, DPD2457, and DPD3316, respectively.\n(§4) The YhcP-Left primer was designed to contain a HindIII site and the YhcP-Right primer was designed to contain an EcoRI site for directional cloning of the resultant PCR product. […] The product of the PCR reaction was digested with restriction enzymes EcoRI and HindIII. The restriction digestion also contained pKK223-3 at an approximate molar ratio of 2:1 (insert:vector). Following incubation at 37° C. for 1.5 hours, the enzymes were inactivated by incubation at 65° C. for 20 minutes. The enzymes were subsequently removed by use a Qiaquick PCR purification kit (Qiagen) according to the vendor's instructions. The purified restriction products were ligated using T4 DNA ligase at 16° C. overnight. Following ligation, PstI and SmaI digestions were used to linearize the vector without insert DNA. The DNA from this selection digestion was used for transformation of E. coli strain JM105 (Amersham Pharmacia Biotech Inc., Piscataway, N.J.) using selection for Ampicillin resistance. Plasmid DNA from individual transformants was digested with EcoRI and HindIII. […] This plasmid and others were placed in various host strains by transformation and selection for Ampicillin resistance."}, "[6]": {"tested_on": "E. coli strain DPD2462 (DPD2444 yhcP− with pKK223-3 control plasmid)", "test": "pHBA zone of growth inhibition, plasmid-carrying strains (Table 9)", "format": "cell-based", "source_text": "as §3, §4"}, "[7]": {"tested_on": "E. coli strain DPD2466 (DPD2433 yhcS− with pKK223-3 control plasmid)", "test": "pHBA zone of growth inhibition, plasmid-carrying strains (Table 9)", "format": "cell-based", "source_text": "as §3, §4"}, "[8]": {"tested_on": "E. coli strain DPD2465 (DPD2444 yhcP− with pDEW675 yhcRQ)", "test": "pHBA zone of growth inhibition, plasmid-carrying strains (Table 9)", "format": "cell-based", "source_text": "as §3, §4"}, "[9]": {"tested_on": "E. coli strain DPD2459 (MG1655 + with pKK223-3 control plasmid)", "test": "pHBA zone of growth inhibition, plasmid-carrying strains (Table 9)", "format": "cell-based", "source_text": "as §3, §4"}, "[10]": {"tested_on": "E. coli strain DPD2467 (DPD2433 yhcS− with pDEW659 yhcP)", "test": "pHBA zone of growth inhibition, plasmid-carrying strains (Table 9)", "format": "cell-based", "source_text": "as §3, §4"}, "[11]": {"tested_on": "E. coli strain DPD2464 (DPD2444 yhcP− with pDEW673 yhcQP)", "test": "pHBA zone of growth inhibition, plasmid-carrying strains (Table 9)", "format": "cell-based", "source_text": "as §3, §4"}, "[12]": {"tested_on": "E. coli strain DPD3316 (DPD2433 yhcS− with pTrcHis2TOPO®/lacZ control)", "format": "cell-based", "conditions": "sodium salt of pHBA 80 μmoles/disk", "source_text": "as §3"}, "[13]": {"tested_on": "E. coli strain DPD2455 (DPD2433 yhcS− with pDEW673 yhcQP)", "format": "cell-based", "conditions": "sodium salt of pHBA 80 μmoles/disk", "source_text": "as §3"}, "[14]": {"tested_on": "E. coli strain DPD2457 (DPD2433 yhcS− with pDEW675 yhcRQ)", "format": "cell-based", "conditions": "sodium salt of pHBA 80 μmoles/disk", "source_text": "as §3"}, "[15]": {"tested_on": "E. coli strain DPD3317 (DPD2433 yhcS− with pDEW668 yhcRQP)", "format": "cell-based", "conditions": "sodium salt of pHBA 80 μmoles/disk", "source_text": "as §3"}, "[16]": {"tested_on": "E. coli strain DPD2444 (yhcP::TN<Kan>)", "test": "MIC, 2-fold dilutions, Vogel-Bonner medium with 0.4% glucose", "format": "cell-based", "conditions": "Escherichia coli, read-out: MIC for pHBA", "source_text": "The yhcP::TN<Kan> was introduced into E. coli strain MG1655 (obtained from Prof. Douglas Berg, Washington University School of Medicine, St. Louis, […].) by P1clr100 Cm mediated transduction to kanamycin resistance using phage lysates of E. coli strain DPD2443. One of the resultant kanamycin resistant transductants was named DPD2444."}, "[17]": {"conditions": "Vogel-Bonner 0.4% glucose, average of two experiments"}},
  "data": [
    {"compound": "O=C(O)c1ccc(O)cc1", "note": "[pHBA, para-hydroxybenzoic acid]", "values": [
      {"measurement": "RLU", "setting": "[1]; [pHBA] 1.6, thirty minutes", "result": 6.72, "unit": "RLU"},
      {"measurement": "RLU", "setting": "[1]; [pHBA] 3.1, thirty minutes", "result": 10.2, "unit": "RLU"},
      {"measurement": "RLU", "setting": "[1]; [pHBA] 6.2, thirty minutes", "result": 16.2, "unit": "RLU"},
      {"measurement": "RLU", "setting": "[1]; [pHBA] 12.5, thirty minutes", "result": 30.8, "unit": "RLU"},
      {"measurement": "RLU", "setting": "[1]; [pHBA] 25, thirty minutes", "result": 66.6, "unit": "RLU"},
      {"measurement": "RLU", "setting": "[1]; [pHBA] 50, thirty minutes", "result": 91.7, "unit": "RLU"},
      {"measurement": "RLU", "setting": "[1]; [pHBA] 100, thirty minutes", "result": 0.437, "unit": "RLU"},
      {"measurement": "RLU", "setting": "[2]; [pHBA] 1.6, thirty minutes", "result": 1.02, "unit": "RLU"},
      {"measurement": "RLU", "setting": "[2]; [pHBA] 3.1, thirty minutes", "result": 1.16, "unit": "RLU"},
      {"measurement": "RLU", "setting": "[2]; [pHBA] 6.2, thirty minutes", "result": 1.42, "unit": "RLU"},
      {"measurement": "RLU", "setting": "[2]; [pHBA] 12.5, thirty minutes", "result": 1.82, "unit": "RLU"},
      {"measurement": "RLU", "setting": "[2]; [pHBA] 25, thirty minutes", "result": 1.59, "unit": "RLU"},
      {"measurement": "RLU", "setting": "[2]; [pHBA] 50, thirty minutes", "result": 0.614, "unit": "RLU"},
      {"measurement": "RLU", "setting": "[2]; [pHBA] 100, thirty minutes", "result": 0.045, "unit": "RLU"},
      {"measurement": "degree of growth within the pHBA zone of growth inhibition", "setting": "E. coli strain MG1655", "result": "turbid"},
      {"measurement": "pHBA zone of growth inhibition, mm diameter", "setting": "E. coli strain MG1655; average of two experiments", "result": 9.5, "unit": "mm"},
      {"measurement": "pHBA zone of growth inhibition, mm diameter", "setting": "[3]", "result": 9.0, "unit": "mm"},
      {"measurement": "pHBA zone of growth inhibition, mm diameter", "setting": "[4]", "result": 13.0, "unit": "mm"},
      {"measurement": "clarity of pHBA zone of growth inhibition", "setting": "[5]", "result": "turbid"},
      {"measurement": "pHBA zone of growth inhibition, mm diameter", "setting": "[5]; tested as for Table 8", "result": 10.5, "unit": "mm"},
      {"measurement": "clarity of pHBA zone of growth inhibition", "setting": "[6]", "result": "clear"},
      {"measurement": "pHBA zone of growth inhibition, mm diameter", "setting": "[6]; tested as for Table 8", "result": 22.8, "unit": "mm"},
      {"measurement": "clarity of pHBA zone of growth inhibition", "setting": "[7]", "result": "clear"},
      {"measurement": "pHBA zone of growth inhibition, mm diameter", "setting": "[7]; tested as for Table 8", "result": 19.2, "unit": "mm"},
      {"measurement": "clarity of pHBA zone of growth inhibition", "setting": "[8]", "result": "clear"},
      {"measurement": "pHBA zone of growth inhibition, mm diameter", "setting": "[8]; tested as for Table 8", "result": 21.8, "unit": "mm"},
      {"measurement": "clarity of pHBA zone of growth inhibition", "setting": "[9]", "result": "turbid"},
      {"measurement": "pHBA zone of growth inhibition, mm diameter", "setting": "[9]; tested as for Table 8", "result": 10.0, "unit": "mm"},
      {"measurement": "clarity of pHBA zone of growth inhibition", "setting": "[10]", "result": "clear"},
      {"measurement": "pHBA zone of growth inhibition, mm diameter", "setting": "[10]; tested as for Table 8", "result": 18.8, "unit": "mm"},
      {"measurement": "clarity of pHBA zone of growth inhibition", "setting": "[11]", "result": "turbid"},
      {"measurement": "pHBA zone of growth inhibition, mm diameter", "setting": "[11]; tested as for Table 8", "result": 9.8, "unit": "mm"},
      {"measurement": "clarity of pHBA zone of growth inhibition", "setting": "[12]", "result": "clear"},
      {"measurement": "pHBA zone of growth inhibition, mm diameter", "setting": "[12]; [17]", "result": 23.5, "unit": "mm"},
      {"measurement": "clarity of pHBA zone of growth inhibition", "setting": "[13]", "result": "turbid"},
      {"measurement": "pHBA zone of growth inhibition, mm diameter", "setting": "[13]; [17]", "result": 9.5, "unit": "mm"},
      {"measurement": "clarity of pHBA zone of growth inhibition", "setting": "[14]", "result": "slightly turbid"},
      {"measurement": "pHBA zone of growth inhibition, mm diameter", "setting": "[14]; [17]", "result": 17.0, "unit": "mm"},
      {"measurement": "clarity of pHBA zone of growth inhibition", "setting": "[15]", "result": "turbid"},
      {"measurement": "pHBA zone of growth inhibition, mm diameter", "setting": "[15]; [17]", "result": 9.8, "unit": "mm"},
      {"measurement": "MIC", "setting": "[16]", "result": 25, "unit": "mM"}
    ]}
  ]
}
